Where “and” joins values, the source holds several entries; their conditions need not be identical. Equal values may be shown once. Toxic doses and inconclusive results are not listed.
System: CD2F1 mice, L1210 leukemia ip, survival T/C
Assay: NCI In Vivo Anticancer Drug Screen. Data for tumor model L1210 Leukemia (intraperitoneal) in CD2F1 (CDF1) mice
Settings: higher = longer survival
Method in brief: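 Transplantable tumor in mice; compound-treated vs vehicle-treated groups. Read-out = treated/control ratio of the measured endpoint.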

[1] = endpoint: mean survival time, dose: 100.0 mg/kg/injection, schedule: Q01DX001 (ip), vehicle: saline
[2] = endpoint: mean survival time, dose: 100.0 mg/kg/injection, schedule: Q04DX003 (ip), vehicle: saline with Tween-80
[3] = endpoint: mean survival time, dose: 200.0 mg/kg/injection, schedule: Q04DX003 (ip), vehicle: saline with Tween-80
[4] = endpoint: mean survival time, dose: 400.0 mg/kg/injection, schedule: Q04DX003 (ip), vehicle: saline with Tween-80

In the case of `O=[Te]=O`, the T/C (endpoint: median survival time, dose: 3.12 mg/kg/injection, schedule: Q01DX009 (ip), vehicle: saline) is reported as 100 % of control, the T/C (endpoint: median survival time, dose: 6.25 mg/kg/injection, schedule: Q01DX009 (ip), vehicle: saline) is reported as 98 % of control and the T/C (endpoint: median survival time, dose: 10.0 mg/kg/injection, schedule: Q01DX009 (ip), vehicle: saline) is reported as 101 % of control. The T/C (endpoint: median survival time, dose: 12.5 mg/kg/injection, schedule: Q01DX009 (ip), vehicle: saline) was 100 % of control and the T/C (endpoint: median survival time, dose: 20.0 mg/kg/injection, schedule: Q01DX009 (ip), vehicle: saline) was 97 % of control.
In the case of `CN(C)Cc1ccc2ccccc2c1`, the T/C (endpoint: mean survival time, dose: 50.0 mg/kg/injection, schedule: Q01DX001 (ip), vehicle: saline) is reported as 102 % of control and the T/C [1] is reported as 97 % of control.
For `CC(=O)ON(C(C)=O)c1ccc(S(=O)(=O)c2ccc(N(OC(C)=O)C(C)=O)cc2)cc1`, the T/C (endpoint: mean survival time, dose: 100.0 mg/kg/injection, schedule: Q01DX009 (ip), vehicle: saline) was 92 % of control, the T/C (endpoint: mean survival time, dose: 200.0 mg/kg/injection, schedule: Q01DX009 (ip), vehicle: saline) was 90 % of control and the T/C (endpoint: mean survival time, dose: 400.0 mg/kg/injection, schedule: Q01DX009 (ip), vehicle: saline) was 89 % of control.
`CCCCCOS(=O)(=O)c1ccc(Cl)c([N+](=O)[O-])c1` was tested, and the T/C [2] was 98 % of control.
With `C=CCOc1cccc[n+]1CC(=O)CC(O)(C(F)(F)F)C(F)(F)F` the T/C [2] was 95 % of control, the T/C [3] was 92 % of control and the T/C [4] was 97 % of control.
`Cc1ccc(N=Nc2c(N)nc(N)nc2N)cc1C` was tested, and the T/C [2] was 96 % of control, the T/C [3] was 102 % of control and the T/C [4] was 108 % of control.
With `CCOC(=O)C(Cc1cccc2ccccc12)P(=O)(OCC)OCC` (configuration not stated) the T/C [1] was 108 % of control, the T/C (endpoint: mean survival time, dose: 200.0 mg/kg/injection, schedule: Q01DX001 (ip), vehicle: saline) was 108 % of control and the T/C (endpoint: mean survival time, dose: 400.0 mg/kg/injection, schedule: Q01DX001 (ip), vehicle: saline) was 106 % of control.
For `CCC(CC)N=C(N)N`, the T/C (endpoint: mean survival time, dose: 25.0 mg/kg/injection, schedule: Q01DX009 (ip), vehicle: saline with Tween-80) was 100 % of control, the T/C (endpoint: mean survival time, dose: 25.0 mg/kg/injection, schedule: Q04DX003 (ip), vehicle: saline) was 100 % of control and the T/C (endpoint: mean survival time, dose: 50.0 mg/kg/injection, schedule: Q01DX009 (ip), vehicle: saline with Tween-80) was 93 % of control. The T/C (endpoint: mean survival time, dose: 50.0 mg/kg/injection, schedule: Q04DX003 (ip), vehicle: saline) was 97 % of control, the T/C (endpoint: mean survival time, dose: 100.0 mg/kg/injection, schedule: Q01DX009 (ip), vehicle: saline with Tween-80) was 98 % of control and the T/C (endpoint: mean survival time, dose: 100.0 mg/kg/injection, schedule: Q04DX003 (ip), vehicle: saline) was 94 % of control.
`O=C(O)c1ccc([N+](=O)[O-])cc1C(=O)O.[NH-]C1CCCCC1[NH-].[Pt+2]` was tested, and the T/C (endpoint: median survival time, dose: 3.12 mg/kg/injection, schedule: Q04DX003 (ip), vehicle: saline) was 100 % of control and 110 % of control, the T/C (endpoint: median survival time, dose: 6.25 mg/kg/injection, schedule: Q04DX003 (ip), vehicle: saline) was 121 % of control and 110 % of control and the T/C (endpoint: median survival time, dose: 12.5 mg/kg/injection, schedule: Q04DX003 (ip), vehicle: saline) was 116 % of control. The T/C (endpoint: median survival time, dose: 50.0 mg/kg/injection, schedule: Q04DX003 (ip), vehicle: saline) was 176 % of control, the T/C (endpoint: median survival time, dose: 100.0 mg/kg/injection, schedule: Q04DX003 (ip), vehicle: saline) was 183 % of control and 282 % of control and the T/C (endpoint: median survival time, dose: 200.0 mg/kg/injection, schedule: Q04DX003 (ip), vehicle: saline) was 97 % of control.

From PubChem BioAssay AID256 (DTP/NCI, 2004)
